Source: US20240279220A1, “INDOLE COMPOUNDS AND METHODS OF USE” (Genzyme Corporation, priority 2021, published 2024)

How the values were obtained:
[1] = target: T1, CFTR (Homo sapiens, UniProt P13569, DEL508-508); assay: TECC24 recording of CFTR-mediated transepithelial chloride transport in ΔF508 homozygous CF-HBE cells; format: cell-based; conditions: 10 μM test agent, 48 hours incubation, AUC of forskolin-stimulated IEQ divided by vehicle AUC, primary CF-HBE cells
T1 construct: Primary human bronchial epithelial cells from a ΔF508 homozygous CF donor; host or cells: primary human bronchial epithelial cells (CF-HBE), ΔF508 homozygous donor
Experimental: The effects of a test agent on CFTR-mediated transepithelial chloride transport was measured using TECC24 recording analysis. Test agents were solubilized in DMSO. Solubilized test agents were mixed with incubation medium containing DMEM/F12, Ultroser G (2%; Crescent Chemical, catalog #67042), Hyclone Fetal Clone II (2%; GE Healthcare, catalog #SH30066.02), bovine brain extract (0.25%; Lonza, catalog #CC-4098), insulin (2.5 μg/mL), IL-13 (10 ng/mL), hydrocortisone (20 nM), transferrin (2.5 μg/mL), triiodothyronine (500 nM), ethanolamine (250 nM), epinephrine (1.5 μM), phosphoethanolamine (250 nM), and retinoic acid (10 nM). Primary human bronchial epithelial cells from a ΔF508 homozygous CF donor (CF-HBE cells; from University of North Carolina Cystic Fibrosis Tissue Procurement Center), grown on Transwell HTS 24-well cell culture inserts (Costar, catalog #3378), were exposed to test agents or controls dissolved in incubation medium. The CF-HBE cells were cultured at 36.5° C. for 48 hours before TECC24 recordings were performed in the presence or absence of test agent, a positive control or vehicle (DMSO).
Following incubation, the transwell cell culture inserts containing the test agent or control-treated CF-HBE cells were loaded onto a TECC24 apparatus (TECC v7 or MTECC v2; EP Design) to record the transepithelial voltage (VT) and resistance (TEER) using 4 AgCl electrodes per well configured in current-clamp mode. The apical and basolateral bath solutions both contained (in mM) 140 NaCl, 5 KCl, 2 CaCl2, 1 MgCl2, 10 Hepes, and 10 glucose (adjusted to pH 7.4 with NaOH). To inhibit basal Na+ absorption, the ENaC inhibitor benzamil (10 μM) was added to the bath. Then, the adenylate cyclase activator, forskolin (10 μM), was added to the bath to activate CFTR. The forskolin-stimulated Cl— transport was halted by addition of CFTR inhibitor-172 (20 μM) to the bath at the end of the experiment to confirm specificity. VT and TEER recordings were digitally acquired at routine intervals using TECC or MTECC software (EP Design). VT and TEER were transformed into equivalent transpeithelial Cl— current (IEQ), and the Area Under the Curve (AUC) of the IEQ timecourse between forskolin and CFTR inhibitor-172 addition is generated using Excel (Microsoft). Efficacy is expressed as the ratio of the test agent AUC divided by vehicle AUC. EC50s based on AUC are generated using the non-linear regression log(agonist) vs. response function in Prism software (Graphpad) with HillSlope fixed=1.
If a test agent increased the AUC of the forskolin-stimulated IEQ relative to vehicle in CF-HBE cells, and this increase was inhibited by CFTR inhibitor-172, then the test agent was considered a CFTR corrector.

[2] = system: NBD1/3D; assay: Aggregation analysis using differential static light scattering (DSLS), NBD1 thermal stability; format: binding, Human; conditions: ΔTagg versus DMSO control; compound at 100 μM
Method in brief: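 Purified NBD1 at 0.2 mg/ml in S200 buffer (pH 7.6, 2 mM ATP, 5 mM MgCl2, 1% glycerol) was heated with compound at 1 °C/min to 70 °C. Tagg taken from the light-scattering curve inflection point; ΔTagg = compound Tagg minus mean DMSO control Tagg.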

T1 sequence (P13569 with tags, fused parts or gaps DEL508-508): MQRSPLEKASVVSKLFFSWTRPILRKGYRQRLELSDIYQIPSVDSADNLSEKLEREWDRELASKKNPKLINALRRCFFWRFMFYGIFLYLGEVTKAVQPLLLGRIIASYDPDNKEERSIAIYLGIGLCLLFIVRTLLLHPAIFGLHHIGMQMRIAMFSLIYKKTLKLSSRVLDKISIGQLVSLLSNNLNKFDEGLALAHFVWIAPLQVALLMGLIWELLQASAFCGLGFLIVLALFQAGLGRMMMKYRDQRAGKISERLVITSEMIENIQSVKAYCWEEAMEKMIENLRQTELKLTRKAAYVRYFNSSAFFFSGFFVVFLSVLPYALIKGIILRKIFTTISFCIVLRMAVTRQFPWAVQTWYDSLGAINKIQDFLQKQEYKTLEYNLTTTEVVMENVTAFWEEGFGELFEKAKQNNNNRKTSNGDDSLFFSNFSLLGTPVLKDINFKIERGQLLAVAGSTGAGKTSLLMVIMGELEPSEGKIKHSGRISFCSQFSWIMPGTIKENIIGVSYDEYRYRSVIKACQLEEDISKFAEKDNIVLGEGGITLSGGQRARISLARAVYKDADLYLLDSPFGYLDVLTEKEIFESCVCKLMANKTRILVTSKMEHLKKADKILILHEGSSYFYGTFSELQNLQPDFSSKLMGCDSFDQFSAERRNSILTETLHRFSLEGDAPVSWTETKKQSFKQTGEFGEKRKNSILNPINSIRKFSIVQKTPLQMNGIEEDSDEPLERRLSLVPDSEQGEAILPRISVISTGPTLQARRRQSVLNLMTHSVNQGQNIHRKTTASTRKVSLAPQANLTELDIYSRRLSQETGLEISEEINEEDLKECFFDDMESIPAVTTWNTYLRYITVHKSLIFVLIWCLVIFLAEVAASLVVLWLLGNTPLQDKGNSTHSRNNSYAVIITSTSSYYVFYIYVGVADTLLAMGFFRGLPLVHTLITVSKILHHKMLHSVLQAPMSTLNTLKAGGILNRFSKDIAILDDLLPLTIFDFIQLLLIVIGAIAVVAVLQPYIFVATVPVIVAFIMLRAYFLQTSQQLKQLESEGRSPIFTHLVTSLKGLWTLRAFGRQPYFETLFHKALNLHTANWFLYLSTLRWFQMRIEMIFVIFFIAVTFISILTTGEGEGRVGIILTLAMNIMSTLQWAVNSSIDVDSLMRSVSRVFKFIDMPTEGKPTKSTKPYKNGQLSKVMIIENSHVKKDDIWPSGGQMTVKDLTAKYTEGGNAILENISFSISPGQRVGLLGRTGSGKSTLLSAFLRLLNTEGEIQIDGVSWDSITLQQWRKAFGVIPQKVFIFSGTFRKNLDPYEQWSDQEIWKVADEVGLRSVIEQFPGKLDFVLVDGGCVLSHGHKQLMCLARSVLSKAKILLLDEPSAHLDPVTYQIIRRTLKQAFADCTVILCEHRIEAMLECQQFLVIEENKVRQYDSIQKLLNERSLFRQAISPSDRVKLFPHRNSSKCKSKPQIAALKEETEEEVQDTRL

## CC(c1cnc(-c2cc(Oc3c(F)cc4[nH]ccc4c3F)ccc2F)[nH]1)c1cc(F)cc(CCC(=O)O)c1F (single isomer, unassigned) [Example 132B, 3-(3-(1-(2-(5-((4,6-difluoro-1H-indol-5-yl)oxy)-2-fluorophenyl)-1H-imidazol-5-yl)ethyl)-2,5-difluorophenyl)propanoic acid]
[1]
  TECC24 @ 10 μM over DMSO (AUC fold over DMSO): A (“A” refers to AUC @10 uM >= 12)
[2]
  DSLS NBD1/3D Human Stability delta-T (° C.) @ 100 (μM): A (A: T ≥ 10° C.)

## COC(=O)CCc1cccc(C(O)c2cnc(-c3cccc(Oc4c(F)cc5[nH]ccc5c4-c4nccs4)c3)[nH]2)c1 (centres unmarked) [Example 86, Methyl 3-(3-((2-(3-((6-fluoro-4-(thiazol-2-yl)-1H-indol-5-yl)oxy)phenyl)-1H-imidazol-5-yl)(hydroxy)methyl)phenyl)propanoate]
[1]
  TECC24 @ 10 μM over DMSO (AUC fold over DMSO): C (“C” refers to AUC @ 10 uM <= 4)
[2]
  DSLS NBD1/3D Human Stability delta-T (° C.) @ 100 (μM): C (C: ≤5° C.)

## CC(c1cn(C)c(-c2cc(Oc3c(F)cc4[nH]ccc4c3F)ccc2F)n1)c1cccc(CCC(=O)O)c1F (single isomer, unassigned) [Example 278B, 3-(3-(1-(2-(5-((4,6-difluoro-1H-indol-5-yl)oxy)-2-fluorophenyl)-1-methyl-1H-imidazol-4-yl)ethyl)-2-fluorophenyl)propanoic acid]
[1]
  TECC24 @ 10 μM over DMSO (AUC fold over DMSO): A (“A” refers to AUC @10 uM >= 12)
[2]
  DSLS NBD1/3D Human Stability delta-T (° C.) @ 100 (μM): B (B: 5-10° C.)

## CCC(CC)(c1cccc(CCC(=O)O)c1)c1cnc(-c2cc(Oc3c(F)cc4[nH]ccc4c3C)ccc2F)[nH]1 [Example 159, 3-(3-(3-(2-(2-fluoro-5-((6-fluoro-4-methyl-1H-indol-5-yl)oxy)phenyl)-1H-imidazol-5-yl)pentan-3-yl)phenyl)propanoic acid]
[1]
  TECC24 @ 10 μM over DMSO (AUC fold over DMSO): B (“B” refers to AUC @10 uM between 4-12)
[2]
  DSLS NBD1/3D Human Stability delta-T (° C.) @ 100 (μM): B (B: 5-10° C.)

## Cc1c(Oc2ccc(F)c(-c3ncc(Cc4cccc(CCC(=O)O)c4F)[nH]3)c2)c(F)cc2[nH]ccc12 [Example 119, 3-(2-fluoro-3-((2-(2-fluoro-5-((6-fluoro-4-methyl-1H-indol-5-yl)oxy)phenyl)-1H-imidazol-5-yl)methyl)phenyl)propanoic acid]
[1]
  TECC24 @ 10 μM over DMSO (AUC fold over DMSO): C (“C” refers to AUC @ 10 uM <= 4)
[2]
  DSLS NBD1/3D Human Stability delta-T (° C.) @ 100 (μM): B (B: 5-10° C.)

## CO[C@]1(C)C[C@@](c2cc(F)cc(CCC(=O)O)c2)(c2cnc(-c3cc(Oc4c(F)c(F)c5[nH]ccc5c4S(C)(=O)=O)ccc3F)[nH]2)C1 [Example 74, 3-(3-((1r,3r)-1-(2-(5-((6,7-difluoro-4-(methylsulfonyl)-1H-indol-5-yl)oxy)-2-fluorophenyl)-1H-imidazol-5-yl)-3-methoxy-3-methylcyclobutyl)-5-fluorophenyl)propanoic acid]
[1]
  TECC24 @ 10 μM over DMSO (AUC fold over DMSO): A (“A” refers to AUC @10 uM >= 12)
[2]
  DSLS NBD1/3D Human Stability delta-T (° C.) @ 100 (μM): A (A: T ≥ 10° C.)

## O=C(O)CCc1cccc(Cc2c[nH]c(-c3cc(Oc4c(F)cc5c(ccn5P(=O)(O)O)c4F)ccc3F)n2)c1F [Example 270, 3-(3-((2-(5-((4,6-Difluoro-1-phosphono-1H-indol-5-yl)oxy)-2-fluorophenyl)-1H-imidazol-4-yl)methyl)-2-fluorophenyl)propanoic acid]
[1]
  TECC24 @ 10 μM over DMSO (AUC fold over DMSO): C (“C” refers to AUC @ 10 uM <= 4)
[2]
  DSLS NBD1/3D Human Stability delta-T (° C.) @ 100 (μM): C (C: ≤5° C.)

## CNC(c1cccc(CCC(=O)O)c1)c1cnc(-c2cccc(Oc3c(F)cc4[nH]ccc4c3F)c2)[nH]1 (centres unmarked) [Example 266, 3-(3-((2-(3-((4,6-Difluoro-1H-indol-5-yl)oxy)phenyl)-1H-imidazol-5-yl)(methylamino)methyl)phenyl)propanoic acid]
[1]
  TECC24 @ 10 μM over DMSO (AUC fold over DMSO): C (“C” refers to AUC @ 10 uM <= 4)
[2]
  DSLS NBD1/3D Human Stability delta-T (° C.) @ 100 (μM): A (A: T ≥ 10° C.)

## O=C(O)CCc1cccc(Cc2cnc(-c3cc(Oc4c(F)c(F)c5[nH]ccc5c4F)ccc3F)[nH]2)c1 [Example 123, 3-(3-((2-(2-fluoro-5-((4,6,7-trifluoro-1H-indol-5-yl)oxy)phenyl)-1H-imidazol-5-yl)methyl)phenyl)propanoic acid]
[1]
  TECC24 @ 10 μM over DMSO (AUC fold over DMSO): B (“B” refers to AUC @10 uM between 4-12)
[2]
  DSLS NBD1/3D Human Stability delta-T (° C.) @ 100 (μM): B (B: 5-10° C.)

## O=C(O)CCc1cccc(C2(c3cnc(-c4cc(Oc5c(F)cc6[nH]ccc6c5F)ccc4F)[nH]3)CCN(CC(F)(F)F)CC2)c1 [Example 169, 3-(3-(4-(2-(5-((4,6-difluoro-1H-indol-5-yl)oxy)-2-fluorophenyl)-1H-imidazol-5-yl)-1-(2,2,2-trifluoroethyl)piperidin-4-yl)phenyl)propanoic acid]
[1]
  TECC24 @ 10 μM over DMSO (AUC fold over DMSO): C (“C” refers to AUC @ 10 uM <= 4)
[2]
  DSLS NBD1/3D Human Stability delta-T (° C.) @ 100 (μM): B (B: 5-10° C.)

## O=C(O)CCc1cccc(Cc2cnc(-c3cc(Oc4c(F)cc5[nH]ccc5c4CC4CCCS4(=O)=O)ccc3F)[nH]2)c1F (centres unmarked) [Example 125, 3-(3-((2-(5-((4-((1,1-dioxidotetrahydrothiophen-2-yl)methyl)-6-fluoro-1H-indol-5-yl)oxy)-2-fluorophenyl)-1H-imidazol-5-yl)methyl)-2-fluorophenyl)propanoic acid]
[1]
  TECC24 @ 10 μM over DMSO (AUC fold over DMSO): A (“A” refers to AUC @10 uM >= 12)
[2]
  DSLS NBD1/3D Human Stability delta-T (° C.) @ 100 (μM): A (A: T ≥ 10° C.)

## CC(C)(O)c1nc(-c2cc(Oc3c(F)cc4[nH]ccc4c3F)ccc2F)[nH]c1Cc1cccc(CCC(=O)O)c1F [Example 280, 3-(3-((2-(5-((4,6-Difluoro-1H-indol-5-yl)oxy)-2-fluorophenyl)-4-(2-hydroxypropan-2-yl)-1H-imidazol-5-yl)methyl)-2-fluorophenyl)propanoic acid]
[1]
  TECC24 @ 10 μM over DMSO (AUC fold over DMSO): A (“A” refers to AUC @10 uM >= 12)
[2]
  DSLS NBD1/3D Human Stability delta-T (° C.) @ 100 (μM): B (B: 5-10° C.)

## CC(c1c[nH]c(-c2cc(Oc3c(F)cc4[nH]ccc4c3CC(F)F)ccc2F)n1)c1cccc(CCC(=O)O)c1F (single isomer, unassigned) [Example 129A, 3-(3-(1-(2-(5-((4-(2,2-difluoroethyl)-6-fluoro-1H-indol-5-yl)oxy)-2-fluorophenyl)-1H-imidazol-4-yl)ethyl)-2-fluorophenyl)propanoic acid]
[1]
  TECC24 @ 10 μM over DMSO (AUC fold over DMSO): A (“A” refers to AUC @10 uM >= 12)
[2]
  DSLS NBD1/3D Human Stability delta-T (° C.) @ 100 (μM): A (A: T ≥ 10° C.)

## CS(=O)(=O)CCc1c(Oc2ccc(F)c(-c3ncc(Cc4cccc(CCC(=O)O)c4F)[nH]3)c2)c(F)cc2[nH]ccc12 [Example 126, 3-(2-fluoro-3-((2-(2-fluoro-5-((6-fluoro-4-(2-(methylsulfonyl)ethyl)-1H-indol-5-yl)oxy)phenyl)-1H-imidazol-5-yl)methyl)phenyl)propanoic acid]
[1]
  TECC24 @ 10 μM over DMSO (AUC fold over DMSO): B (“B” refers to AUC @10 uM between 4-12)
[2]
  DSLS NBD1/3D Human Stability delta-T (° C.) @ 100 (μM): A (A: T ≥ 10° C.)

## CP(C)(=O)c1c(Oc2ccc(F)c(-c3ncc(C4(c5cc(F)cc(CCC(=O)O)c5)CC(F)(F)C4)[nH]3)c2)c(F)cc2[nH]ccc12 [Example 80, 3-(3-(1-(2-(5-((4-(dimethylphosphoryl)-6-fluoro-1H-indol-5-yl)oxy)-2-fluorophenyl)-1H-imidazol-5-yl)-3,3-difluorocyclobutyl)-5-fluorophenyl)propanoic acid]
[1]
  TECC24 @ 10 μM over DMSO (AUC fold over DMSO): C (“C” refers to AUC @ 10 uM <= 4)
[2]
  DSLS NBD1/3D Human Stability delta-T (° C.) @ 100 (μM): A (A: T ≥ 10° C.)

## [2H]C([2H])([2H])C(C#N)(c1cccc(CCC(=O)O)c1)c1cnc(-c2cc(Oc3c(F)c(F)c4[nH]ccc4c3F)ccc2F)[nH]1 (single isomer, unassigned) [Example 64A, 3-(3-(1-Cyano-1-(2-(2-fluoro-5-((4,6,7-trifluoro-1H-indol-5-yl)oxy)phenyl)-1H-imidazol-5-yl)ethyl-2,2,2-d3)phenyl)propanoic acid]
[1]
  TECC24 @ 10 μM over DMSO (AUC fold over DMSO): B (“B” refers to AUC @10 uM between 4-12)
[2]
  DSLS NBD1/3D Human Stability delta-T (° C.) @ 100 (μM): B (B: 5-10° C.)
